Paper PMC5218480 (PLoS ONE, 2017)

Tested on: MV-4-11 cells
Assay: Gene expression microarray analysis (Affymetrix PrimeView) and GSEA
Assay type: cell-based, human
Set-up: RFU PODN (11730768_x_at) / Fold change /veh PODN (11730768_x_at) / RFU LINC00158 (11744669_a_at) / Fold change /veh LINC00158 (11744669_a_at) / RFU DUSP10 (11751237_a_at) / Fold change /veh DUSP10 (11751237_a_at) / RFU ID3 (11757404_x_at) / Fold change /veh ID3 (11757404_x_at) / RFU PLEKHG5 (11737974_s_at) / Fold change /veh PLEKHG5 (11737974_s_at) / RFU LRRC4B (11730491_at) / Fold change /veh LRRC4B (11730491_at) / RFU GIMAP4 (11747438_a_at) / Fold change /veh GIMAP4 (11747438_a_at) / RFU KRT8 (11758183_x_at) / Fold change /veh KRT8 (11758183_x_at) / RFU CNN1 (11734310_a_at) / Fold change /veh CNN1 (11734310_a_at) / RFU VPS37D (11726825_at) / Fold change /veh VPS37D (11726825_at) / RFU C10orf10 (11716522_x_at) / Fold change /veh C10orf10 (11716522_x_at) / RFU KIR2DL2 /// KIR2DL4 /// KIR2DL5A /// KIR2DL5B /// KIR2DS1 /// KIR2DS2 /// KIR2DS3 /// KIR2DS4 /// KIR3DL3 /// KIR3DL3 /// KIR3DS1 (11738374_at) / Fold change /veh KIR2DL2 /// KIR2DL4 /// KIR2DL5A /// KIR2DL5B /// KIR2DS1 /// KIR2DS2 /// KIR2DS3 /// KIR2DS4 /// KIR3DL3 /// KIR3DL3 /// KIR3DS1 (11738374_at) / RFU C1QL1 (11718748_at) / Fold change /veh C1QL1 (11718748_at) / RFU TMPRSS4 (11747572_a_at) / Fold change /veh TMPRSS4 (11747572_a_at) / RFU HAMP (11756126_x_at) / Fold change /veh HAMP (11756126_x_at) / RFU RNFT2 (11725882_a_at) / Fold change /veh RNFT2 (11725882_a_at) / RFU NR4A2 (11747474_a_at) / Fold change /veh NR4A2 (11747474_a_at) / RFU ABCC12 (11746883_a_at) / Fold change /veh ABCC12 (11746883_a_at) / RFU TMEM136 (11760407_x_at) / Fold change /veh TMEM136 (11760407_x_at) / RFU CLDN22 /// WWC2 (11732394_at) / Fold change /veh CLDN22 /// WWC2 (11732394_at) / RFU HLA-DPB1 (11760878_x_at) / Fold change /veh HLA-DPB1 (11760878_x_at) / RFU SPINT1 (11716480_a_at) / Fold change /veh SPINT1 (11716480_a_at) / RFU GAP43 (11754022_s_at) / Fold change /veh GAP43 (11754022_s_at) / RFU A4GNT (11735810_at) / Fold change /veh A4GNT (11735810_at) / RFU PRB3 (11715151_x_at) / Fold change /veh PRB3 (11715151_x_at) / RFU TUBB4B (11761932_at) / Fold change /veh TUBB4B (11761932_at) / RFU CAPN14 (11732068_a_at) / Fold change /veh CAPN14 (11732068_a_at) / RFU TMCC2 (11721928_a_at) / Fold change /veh TMCC2 (11721928_a_at) / RFU IRGQ (11745062_a_at) / Fold change /veh IRGQ (11745062_a_at) / RFU FAM174B (11720279_a_at) / Fold change /veh FAM174B (11720279_a_at) / RFU TMPRSS4 (11748680_a_at) / Fold change /veh TMPRSS4 (11748680_a_at) / RFU FAM212B (11763350_a_at) / Fold change /veh FAM212B (11763350_a_at) / RFU PLEKHG5 (11743358_a_at) / Fold change /veh PLEKHG5 (11743358_a_at) / RFU ZSCAN30 (11745921_a_at) / Fold change /veh ZSCAN30 (11745921_a_at) / RFU CMKLR1 (11741424_a_at) / Fold change /veh CMKLR1 (11741424_a_at) / RFU LOC101060620 /// MAPK8IP1 (11723275_at) / Fold change /veh LOC101060620 /// MAPK8IP1 (11723275_at) / RFU SPTSSB (11747773_x_at) / Fold change /veh SPTSSB (11747773_x_at) / RFU PRSS12 (11739890_at) / Fold change /veh PRSS12 (11739890_at) / RFU BIN1 (11741810_x_at) / Fold change /veh BIN1 (11741810_x_at) / RFU WNT11 (11732464_a_at) / Fold change /veh WNT11 (11732464_a_at) / RFU C10orf10 (11716521_a_at) / Fold change /veh C10orf10 (11716521_a_at) / RFU C5orf56 (11738089_at) / Fold change /veh C5orf56 (11738089_at) / RFU CYB561 (11721691_x_at) / Fold change /veh CYB561 (11721691_x_at) / RFU ANKRD19P (11752326_a_at) / Fold change /veh ANKRD19P (11752326_a_at) / RFU OR2T12 /// OR2T33 /// OR2T8 (11738714_s_at) / Fold change /veh OR2T12 /// OR2T33 /// OR2T8 (11738714_s_at) / RFU VCAN (11748164_a_at) / Fold change /veh VCAN (11748164_a_at) / RFU JSRP1 (11732532_at) / Fold change /veh JSRP1 (11732532_at) / RFU KRTAP10-11 (11738290_x_at) / Fold change /veh KRTAP10-11 (11738290_x_at) / RFU MYO3A (11730013_a_at) / Fold change /veh MYO3A (11730013_a_at) / RFU EBF3 (11725865_a_at) / Fold change /veh EBF3 (11725865_a_at) / RFU CAMK2N1 (11719241_x_at) / Fold change /veh CAMK2N1 (11719241_x_at) / RFU C5orf56 (11738088_a_at) / Fold change /veh C5orf56 (11738088_a_at) / RFU OLFML3 (11715873_a_at) / Fold change /veh OLFML3 (11715873_a_at) / RFU LOC100653217 /// NTM (11731650_a_at) / Fold change /veh LOC100653217 /// NTM (11731650_a_at) / RFU MAPK11 (11762145_a_at) / Fold change /veh MAPK11 (11762145_a_at) / RFU FIZ1 (11724087_x_at) / Fold change /veh FIZ1 (11724087_x_at) / RFU OASL (11726364_x_at) / Fold change /veh OASL (11726364_x_at) / RFU SOX15 (11748057_x_at) / Fold change /veh SOX15 (11748057_x_at) / RFU CD79A (11719716_a_at) / Fold change /veh CD79A (11719716_a_at) / RFU HIST1H1D (11736915_at) / Fold change /veh HIST1H1D (11736915_at) / RFU CASKIN2 (11723855_a_at) / Fold change /veh CASKIN2 (11723855_a_at) / RFU LOC730098 (11760151_x_at) / Fold change /veh LOC730098 (11760151_x_at) / RFU OR4N2 (11742367_at) / Fold change /veh OR4N2 (11742367_at) / RFU PRRT2 (11749266_a_at) / Fold change /veh PRRT2 (11749266_a_at) / RFU SNX32 (11753110_a_at) / Fold change /veh SNX32 (11753110_a_at) / RFU CDHR5 (11726645_a_at) / Fold change /veh CDHR5 (11726645_a_at) / RFU RCAN1 (11760418_a_at) / Fold change /veh RCAN1 (11760418_a_at) / RFU FAM167A (11723789_a_at) / Fold change /veh FAM167A (11723789_a_at) / RFU FAM26E (11764081_at) / Fold change /veh FAM26E (11764081_at) / RFU ISYNA1 (11749810_s_at) / Fold change /veh ISYNA1 (11749810_s_at) / RFU ACY1 (11761880_at) / Fold change /veh ACY1 (11761880_at) / RFU 11764098_at / Fold change /veh 11764098_at / RFU SAMD14 (11745864_x_at) / Fold change /veh SAMD14 (11745864_x_at) / RFU NPB (11741838_a_at) / Fold change /veh NPB (11741838_a_at) / RFU TMPRSS6 (11731388_a_at) / Fold change /veh TMPRSS6 (11731388_a_at) / RFU KRTAP10-2 (11738614_at) / Fold change /veh KRTAP10-2 (11738614_at) / RFU ARHGAP8 /// PRR5-ARHGAP8 (11727945_x_at) / Fold change /veh ARHGAP8 /// PRR5-ARHGAP8 (11727945_x_at) / RFU KRTAP5-7 /// NADSYN1 (11734609_at) / Fold change /veh KRTAP5-7 /// NADSYN1 (11734609_at) / RFU RASL12 (11751679_a_at) / Fold change /veh RASL12 (11751679_a_at) / RFU CDKN2B (11736163_a_at) / Fold change /veh CDKN2B (11736163_a_at) / RFU PRF1 (11729649_at) / Fold change /veh PRF1 (11729649_at) / RFU, ZNF638 /// ZNF638-IT1 / Fold change vs veh, ZNF638 /// ZNF638-IT1 / RFU, PANK3 / Fold change vs veh, PANK3 / RFU, SH3YL1 / Fold change vs veh, SH3YL1 / RFU, ZEB2 / Fold change vs veh, ZEB2 / RFU, NRIP1 / Fold change vs veh, NRIP1 / RFU, PTTG1IP / Fold change vs veh, PTTG1IP / RFU, CAPN2 / Fold change vs veh, CAPN2 / RFU, MED14 / Fold change vs veh, MED14 / RFU, SNORA58 / Fold change vs veh, SNORA58 / RFU, C1orf63 / Fold change vs veh, C1orf63 / RFU, LRRFIP1 / Fold change vs veh, LRRFIP1 / RFU, NDUFAF7 / Fold change vs veh, NDUFAF7 / RFU, SLC12A2 / Fold change vs veh, SLC12A2 / RFU, IBTK / Fold change vs veh, IBTK / RFU, ESF1 / Fold change vs veh, ESF1 / Fold change vs veh, TMEM50B / RFU, TAOK1 / Fold change vs veh, TAOK1 / RFU, ACBD3 / Fold change vs veh, ACBD3 / RFU, TMA16 / Fold change vs veh, TMA16 / RFU, RWDD3 / Fold change vs veh, RWDD3 / RFU, BCAT1 / Fold change vs veh, BCAT1 / RFU, EDEM3 / Fold change vs veh, EDEM3 / RFU, TMEM33 / Fold change vs veh, TMEM33 / RFU, WDR75 / Fold change vs veh, WDR75 / RFU, AHCTF1 / Fold change vs veh, AHCTF1 / RFU, TFRC / Fold change vs veh, TFRC / RFU, ZDHHC17 / Fold change vs veh, ZDHHC17 / RFU, NOM1 / Fold change vs veh, NOM1 / RFU, ARL8B / Fold change vs veh, ARL8B / RFU, ZBTB11 / Fold change vs veh, ZBTB11 / RFU, TAMM41 / Fold change vs veh, TAMM41 / RFU, KIAA1704 /// LOC100996395 / Fold change vs veh, KIAA1704 /// LOC100996395 / RFU, ING1 / Fold change vs veh, ING1 / RFU, TRMT61B / Fold change vs veh, TRMT61B / RFU, FUBP3 / Fold change vs veh, FUBP3 / RFU, TP53 / Fold change vs veh, TP53 / RFU, TNKS2 / Fold change vs veh, TNKS2 / RFU, ZFP14 / Fold change vs veh, ZFP14 / RFU, ACTR2 / Fold change vs veh, ACTR2 / RFU, PPP3R1 / Fold change vs veh, PPP3R1 / RFU, PIK3R1 / Fold change vs veh, PIK3R1 / RFU, HNRNPA1 / Fold change vs veh, HNRNPA1 / RFU, RNF170 / Fold change vs veh, RNF170 / RFU, ZNF28 / Fold change vs veh, ZNF28 / RFU, RNGTT / Fold change vs veh, RNGTT / RFU, OGT / Fold change vs veh, OGT / RFU, BRD1 / Fold change vs veh, BRD1 / RFU, MARS / Fold change vs veh, MARS / RFU, ZNF655 / Fold change vs veh, ZNF655 / RFU, FAHD1 / Fold change vs veh, FAHD1 / RFU, BDP1 / Fold change vs veh, BDP1 / RFU, LRRCC1 / Fold change vs veh, LRRCC1 / RFU, ARID1A / Fold change vs veh, ARID1A / RFU, ZNF146 / Fold change vs veh, ZNF146 / RFU, ZNF330 / Fold change vs veh, ZNF330 / RFU, GPN3 / Fold change vs veh, GPN3 / RFU, C9orf123 / Fold change vs veh, C9orf123 / RFU, N4BP2L2 / Fold change vs veh, N4BP2L2 / RFU, ARFIP1 / Fold change vs veh, ARFIP1 / RFU, FAM179B / Fold change vs veh, FAM179B / RFU, BCL10 / Fold change vs veh, BCL10 / RFU, UHRF1BP1L / Fold change vs veh, UHRF1BP1L / RFU, BET1 / Fold change vs veh, BET1 / RFU, CNOT2 / Fold change vs veh, CNOT2 / RFU, ZNF268 / Fold change vs veh, ZNF268 / Fold change vs veh, ZNF507 / RFU, DGCR2 / Fold change vs veh, DGCR2 / RFU, WDSUB1 / Fold change vs veh, WDSUB1 / Fold change vs veh, HSP90B1 /// MIR3652 / RFU, ADSS / Fold change vs veh, ADSS / RFU, GK / Fold change vs veh, GK / RFU, ZNF148 / Fold change vs veh, ZNF148 / RFU, TAF9 / Fold change vs veh, TAF9 / RFU, SLC1A5 / Fold change vs veh, SLC1A5 / RFU, SLMO2 / Fold change vs veh, SLMO2 / RFU, ABCC4 / Fold change vs veh, ABCC4 / RFU, LOC101060439 /// RAP1B / Fold change vs veh, LOC101060439 /// RAP1B / RFU, RFX7 / Fold change vs veh, RFX7 / RFU, GTPBP10 / Fold change vs veh, GTPBP10 / RFU, CNEP1R1 / Fold change vs veh, CNEP1R1 / RFU, BIVM-ERCC5 /// ERCC5 / Fold change vs veh, BIVM-ERCC5 /// ERCC5 / RFU, ILF3 / Fold change vs veh, ILF3 / RFU 11762660_at / Fold change /veh 11762660_at / RFU VCAN (11757783_s_at) / Fold change /veh VCAN (11757783_s_at) / RFU DDX43 (11728927_at) / Fold change /veh DDX43 (11728927_at) / RFU KRT8 (11758188_x_at) / Fold change /veh KRT8 (11758188_x_at) / RFU NKD1 (11759106_at) / Fold change /veh NKD1 (11759106_at) / RFU SRD5A1 (11742802_a_at) / Fold change /veh SRD5A1 (11742802_a_at) / RFU TPSAB1 /// TPSB2 (11721975_s_at) / Fold change /veh TPSAB1 /// TPSB2 (11721975_s_at) / RFU GSTM3 (11746129_a_at) / Fold change /veh GSTM3 (11746129_a_at) / RFU IL23R (11737362_x_at) / Fold change /veh IL23R (11737362_x_at) / RFU TMEM51 (11727254_a_at) / Fold change /veh TMEM51 (11727254_a_at) / RFU PIWIL2 (11732686_x_at) / Fold change /veh PIWIL2 (11732686_x_at) / RFU ORM1 (11744905_x_at) / Fold change /veh ORM1 (11744905_x_at) / RFU CCDC152 (11743942_at) / Fold change /veh CCDC152 (11743942_at) / RFU ECM1 (11717891_a_at) / Fold change /veh ECM1 (11717891_a_at) / RFU IL23R (11748794_a_at) / Fold change /veh IL23R (11748794_a_at) / RFU TNFAIP8L3 (11732012_x_at) / Fold change /veh TNFAIP8L3 (11732012_x_at) / RFU MBOAT4 (11741988_at) / Fold change /veh MBOAT4 (11741988_at) / RFU 11764193_at / Fold change /veh 11764193_at / RFU TMEM53 (11763286_at) / Fold change /veh TMEM53 (11763286_at) / RFU MAGEB2 (11727129_at) / Fold change /veh MAGEB2 (11727129_at) / RFU TMEM200A (11744735_a_at) / Fold change /veh TMEM200A (11744735_a_at) / RFU CCDC152 (11751479_a_at) / Fold change /veh CCDC152 (11751479_a_at) / RFU FAM211A (11726209_a_at) / Fold change /veh FAM211A (11726209_a_at) / RFU RGS16 (11746705_a_at) / Fold change /veh RGS16 (11746705_a_at) / RFU VCAN (11755009_s_at) / Fold change /veh VCAN (11755009_s_at) / RFU RHOB (11743442_s_at) / Fold change /veh RHOB (11743442_s_at) / RFU RGS16 (11720943_a_at) / Fold change /veh RGS16 (11720943_a_at) / RFU RGS16 (11720944_at) / Fold change /veh RGS16 (11720944_at) / RFU, VPS4B / Fold change vs veh, VPS4B / RFU, CREB1 / Fold change vs veh, CREB1 / RFU, DNAJC13 / Fold change vs veh, DNAJC13 / RFU, GNAQ / Fold change vs veh, GNAQ / RFU, CDK5R1 / Fold change vs veh, CDK5R1 / RFU, ZRANB3 / Fold change vs veh, ZRANB3 / RFU, CUL4A / Fold change vs veh, CUL4A / RFU, CCNY / Fold change vs veh, CCNY / RFU, UFL1 / Fold change vs veh, UFL1 / RFU, COG3 / Fold change vs veh, COG3 / RFU, DIAPH2 / Fold change vs veh, DIAPH2 / RFU, SKA2 / Fold change vs veh, SKA2 / RFU, AFF3 / Fold change vs veh, AFF3 / RFU, LMF1 / Fold change vs veh, LMF1 / RFU, IPO11 / Fold change vs veh, IPO11 / RFU, DFFB / Fold change vs veh, DFFB / RFU, FOXP1 / Fold change vs veh, FOXP1 / RFU, CARD8 / Fold change vs veh, CARD8 / RFU, STRN3 / Fold change vs veh, STRN3 / RFU, ADK / Fold change vs veh, ADK / RFU, RASSF2 / Fold change vs veh, RASSF2 / RFU, WIPF1 / Fold change vs veh, WIPF1 / RFU, LARP1B / Fold change vs veh, LARP1B / RFU, RASA1 / Fold change vs veh, RASA1 / RFU, RB1 / Fold change vs veh, RB1 / RFU, PPFIA1 / Fold change vs veh, PPFIA1 / RFU, MAT2A / Fold change vs veh, MAT2A / RFU, CCT5 / Fold change vs veh, CCT5 / RFU, WDR92 / Fold change vs veh, WDR92 / RFU, CUX1 / Fold change vs veh, CUX1 / RFU, TTC7A / Fold change vs veh, TTC7A / RFU, TMEM135 / Fold change vs veh, TMEM135 / RFU, DEPTOR / Fold change vs veh, DEPTOR / RFU, CPM / Fold change vs veh, CPM / RFU, DNAJB6 / Fold change vs veh, DNAJB6 / RFU, CACNA2D3 / Fold change vs veh, CACNA2D3 / RFU, DTX4 / Fold change vs veh, DTX4 / RFU, TFCP2 / Fold change vs veh, TFCP2 / RFU, GMCL1 /// GMCL1P1 / Fold change vs veh, GMCL1 /// GMCL1P1 / RFU, AEBP2 / Fold change vs veh, AEBP2 / RFU, SNHG1 /// SNORD22 /// SNORD25 /// SNORD26 /// SNORD27 /// SNORD28 /// SNORD29 /// SNORD31 / Fold change vs veh, SNHG1 /// SNORD22 /// SNORD25 /// SNORD26 /// SNORD27 /// SNORD28 /// SNORD29 /// SNORD31 / Fold change (Aza/veh), C12orf56 (ProbeSet 11735607_a_at) / Fold change (ACY-1035/veh), C12orf56 (ProbeSet 11735607_a_at) / Fold change (Aza/veh), FGFR1OP (ProbeSet 11751329_s_at) / Fold change (ACY-1035/veh), FGFR1OP (ProbeSet 11751329_s_at) / Fold change (Aza/veh), VPS36 (ProbeSet 11739960_a_at) / Fold change (ACY-1035/veh), VPS36 (ProbeSet 11739960_a_at) / RFU SYPL1 (11715823_x_at) / Fold change /veh SYPL1 (11715823_x_at) / RFU IGFBP7 (11715501_s_at) / Fold change /veh IGFBP7 (11715501_s_at) / RFU REEP3 (11722064_at) / Fold change /veh REEP3 (11722064_at) / RFU IGLL1 (11728026_x_at) / Fold change /veh IGLL1 (11728026_x_at): dose or concentration left out as unconfirmed
Settings: MV-4-11 cells, 48 hours

Nc1ccc(-c2cccs2)cc1NC(=O)c1ccc2c(c1)cc(C1CC1)n2CCN1CCOCC1 [ACY-1035]
RFU IRGQ (11745062_a_at): 18.74 RFU
